Measured values reported in US20250241918A1, “NOVEL USE OF PYRAZOLOPYRIMIDINE COMPOUND” (HEFEI YOUYUAN PHARMACEUTICAL CO., LTD., priority 2022, published 2025).

Tests used:
[1] = system: rat colitis model induced by rectal administration of DNBS; assay: Rat colitis induced by enema administration of DNBS; assay type: in vivo, Wister rats; conditions: 20 mg/kg p.o. QD, day -2 to 6 (G6); DNBS colitis rats; comparable to positive control group
Experimental: Sixty male Wister rats (purchased from Beijing Vital River Laboratory Animal Technology Co., Ltd.) were randomly divided into six groups, with 10 rats in each group: G1 was the blank control group; G2-G6 were the rat colitis model groups induced by rectal administration of DNBS solution (Tokyo Chemical Industry Co., Ltd., 50 mg/mL DNBS dissolved in 30% ethanol). Various animals were administered with drugs starting from two days before colitis induced by DNBS, and the administration schedules were shown in Table 3 below.
The induction of colitis was performed as follows. The rats were fasted for 40 h before administration, and were subcutaneously injected with 5% glucose saline ([…], once a day) during the fast. On day 0, the fasted rats were anesthetized using Zoletil (intraperitoneal injection, 25 mg/kg, purchased from a pharmacy) and xylazine (intraperitoneal injection, 5 mg/kg, purchased from Sigma-Aldrich). In G2-G6 model groups, colitis was induced in rats by inserting a catheter from the anus into the left colic flexure (about 8 cm away from the anus) and administrating DNBS (0.5 mL per rat) through enema administration. The G1 blank control group was administered with 30% ethanol via enema using the same method. In order to avoid the reflux of enema fluid, animals with enema administration were kept in a head-down position for 15 mins, and then maintained in the Trendelenburg position until waking up.
During the administration period, the body weights of rats in all groups were recorded every day. Six days later, the animals were euthanized and the colorectal tissues were collected. The ulcer area of the colorectum, as well as the degrees of adhesion, intestinal obstruction, ulceration, and intestinal wall thickening, were measured. The pathological condition of the intestinal wall was evaluated. The conditions of colon damage was evaluated according to Table 4.
If the ulcer is irregular in shape, it can be considered as a rectangle, and then the length and width were measured to evaluate the ulcer area. Ulcer area (cm^2)=ulcer length (cm)×ulcer width (cm).

[2] = system: adjuvant-induced arthritis model rats; assay: Adjuvant-induced rat arthritis model; assay type: in vivo, Sprague-Dawley (SD) rats; conditions: Day 21
Experimental: Experimental animals: Fifty male Sprague-Dawley (SD) rats weighing 180+20 g (provided by Qinglongshan Animal Breeding Center, license number SCXK(Su) 2017-0001) were fed with conventional pellet food (Jiangsu Xietong Biology Co., Ltd.) and housed in a clean animal facility. The rats were housed under a 12 h dark/12 h light cycle with free access to food and water. The temperature was maintained between 20° C. to 26° C., while the relative humidity ranged from 40% to 70%. […] Each group of 10 animals was administered QD for a continuous period of 21 days. […]
Paw swelling measurement: 1) the volume of right hind paw for the rats in each group was measured and recorded using a plethysmometer for paw volume before administration, which was used as the baseline value before modeling; 2) the volume of the rats' paw was measured at the end of administration (Day 21), which was used as the secondary value; 3) the swelling volume of the rats' paw was calculated according to the following formula: […]
The arthritis index scores were determined as following: at the end of administration (Day 21), rats in each group were evaluated according to the scoring standard described in Table 5. […]

CN(C)CC(=O)N1CCC[C@@H](n2nc(-c3ccc(Oc4ccccc4)cc3)c3c(N)ncnc32)C1 [Compound 22, (R)-1-(3-(4-amino-(4-phenoxyphenyl)-1H-pyrazolo[3,4-d]pyrimidin-1-yl)piperidin-1-yl)-2-(dimethylamino) ethanone]
animal body weights vs G2 model group [1]: significantly lower than those for the G2 group
scores for the degrees of adhesion, intestinal obstruction, ulceration, intestinal wall thickening vs G2 model group [1]: significantly lower than those for the G2 group
ulcer areas of colorectal tissues vs G2 model group [1]: significantly lower than those for the G2 group
paw swelling ([2]; 10 mg/kg orally QD): significantly alleviated paw swelling
paw swelling ([2]; 30 mg/kg orally QD): significantly alleviated paw swelling
